Source: US10272088B2, “FAS inhibitors and methods associated therewith” (Wake Forest University Health Sciences, priority 2014, dated 2019)
“Also recorded” adds a separate entry of the source.

Tests used:
[1] = Solubility/aggregation of ICG in PBS
PC3 cells = test: Seahorse Mito Stress test, oxygen consumption rate; conditions: Orlistat 50 μM, 12 hours
Method: PC3 cells were seeded into 24-well XF analysis microplates. The cells were the treated with vehicle (•) or Orlistat (50 μM. ? ) for 12 hours before analysis, according to Seahorse protocols. Oxygen consumption rate (OCR), a measure of mitochondrial capacity, was determined using a Seahorse Mito Stress test on a Seahorse XF24 extracellular flux analyzer.

cells = test: Cytotoxicity after pre-incubation in PBS (entrapment/hydrolytic stability); type: cell-based; conditions: pre-incubated in PBS prior to incubating with cells
[2] = cited from earlier work
[3] = tested on: PC3 prostate, RKO colorectal, and MDA-MB-231 breast cancer cells; test: In vitro cytotoxicity, WST-8 assay; conditions: Nano-Orl (PBA ligand) dosed equivalent to 25 m Orlistat, 24 h + 24 h
Method: Media alone or containing experimental or control agents was refreshed after 24 h and allowed to incubate for 24 additional hours. Cytotoxicity was then evaluated using the WST-8 assay (Dojindo, Rockville, Md.).

FASN = FASN (Homo sapiens, UniProt P49327); test: 14C-acetate incorporation study (FASN inhibition); conditions: PC3 cells
Chain of FASN (P49327 whole entry): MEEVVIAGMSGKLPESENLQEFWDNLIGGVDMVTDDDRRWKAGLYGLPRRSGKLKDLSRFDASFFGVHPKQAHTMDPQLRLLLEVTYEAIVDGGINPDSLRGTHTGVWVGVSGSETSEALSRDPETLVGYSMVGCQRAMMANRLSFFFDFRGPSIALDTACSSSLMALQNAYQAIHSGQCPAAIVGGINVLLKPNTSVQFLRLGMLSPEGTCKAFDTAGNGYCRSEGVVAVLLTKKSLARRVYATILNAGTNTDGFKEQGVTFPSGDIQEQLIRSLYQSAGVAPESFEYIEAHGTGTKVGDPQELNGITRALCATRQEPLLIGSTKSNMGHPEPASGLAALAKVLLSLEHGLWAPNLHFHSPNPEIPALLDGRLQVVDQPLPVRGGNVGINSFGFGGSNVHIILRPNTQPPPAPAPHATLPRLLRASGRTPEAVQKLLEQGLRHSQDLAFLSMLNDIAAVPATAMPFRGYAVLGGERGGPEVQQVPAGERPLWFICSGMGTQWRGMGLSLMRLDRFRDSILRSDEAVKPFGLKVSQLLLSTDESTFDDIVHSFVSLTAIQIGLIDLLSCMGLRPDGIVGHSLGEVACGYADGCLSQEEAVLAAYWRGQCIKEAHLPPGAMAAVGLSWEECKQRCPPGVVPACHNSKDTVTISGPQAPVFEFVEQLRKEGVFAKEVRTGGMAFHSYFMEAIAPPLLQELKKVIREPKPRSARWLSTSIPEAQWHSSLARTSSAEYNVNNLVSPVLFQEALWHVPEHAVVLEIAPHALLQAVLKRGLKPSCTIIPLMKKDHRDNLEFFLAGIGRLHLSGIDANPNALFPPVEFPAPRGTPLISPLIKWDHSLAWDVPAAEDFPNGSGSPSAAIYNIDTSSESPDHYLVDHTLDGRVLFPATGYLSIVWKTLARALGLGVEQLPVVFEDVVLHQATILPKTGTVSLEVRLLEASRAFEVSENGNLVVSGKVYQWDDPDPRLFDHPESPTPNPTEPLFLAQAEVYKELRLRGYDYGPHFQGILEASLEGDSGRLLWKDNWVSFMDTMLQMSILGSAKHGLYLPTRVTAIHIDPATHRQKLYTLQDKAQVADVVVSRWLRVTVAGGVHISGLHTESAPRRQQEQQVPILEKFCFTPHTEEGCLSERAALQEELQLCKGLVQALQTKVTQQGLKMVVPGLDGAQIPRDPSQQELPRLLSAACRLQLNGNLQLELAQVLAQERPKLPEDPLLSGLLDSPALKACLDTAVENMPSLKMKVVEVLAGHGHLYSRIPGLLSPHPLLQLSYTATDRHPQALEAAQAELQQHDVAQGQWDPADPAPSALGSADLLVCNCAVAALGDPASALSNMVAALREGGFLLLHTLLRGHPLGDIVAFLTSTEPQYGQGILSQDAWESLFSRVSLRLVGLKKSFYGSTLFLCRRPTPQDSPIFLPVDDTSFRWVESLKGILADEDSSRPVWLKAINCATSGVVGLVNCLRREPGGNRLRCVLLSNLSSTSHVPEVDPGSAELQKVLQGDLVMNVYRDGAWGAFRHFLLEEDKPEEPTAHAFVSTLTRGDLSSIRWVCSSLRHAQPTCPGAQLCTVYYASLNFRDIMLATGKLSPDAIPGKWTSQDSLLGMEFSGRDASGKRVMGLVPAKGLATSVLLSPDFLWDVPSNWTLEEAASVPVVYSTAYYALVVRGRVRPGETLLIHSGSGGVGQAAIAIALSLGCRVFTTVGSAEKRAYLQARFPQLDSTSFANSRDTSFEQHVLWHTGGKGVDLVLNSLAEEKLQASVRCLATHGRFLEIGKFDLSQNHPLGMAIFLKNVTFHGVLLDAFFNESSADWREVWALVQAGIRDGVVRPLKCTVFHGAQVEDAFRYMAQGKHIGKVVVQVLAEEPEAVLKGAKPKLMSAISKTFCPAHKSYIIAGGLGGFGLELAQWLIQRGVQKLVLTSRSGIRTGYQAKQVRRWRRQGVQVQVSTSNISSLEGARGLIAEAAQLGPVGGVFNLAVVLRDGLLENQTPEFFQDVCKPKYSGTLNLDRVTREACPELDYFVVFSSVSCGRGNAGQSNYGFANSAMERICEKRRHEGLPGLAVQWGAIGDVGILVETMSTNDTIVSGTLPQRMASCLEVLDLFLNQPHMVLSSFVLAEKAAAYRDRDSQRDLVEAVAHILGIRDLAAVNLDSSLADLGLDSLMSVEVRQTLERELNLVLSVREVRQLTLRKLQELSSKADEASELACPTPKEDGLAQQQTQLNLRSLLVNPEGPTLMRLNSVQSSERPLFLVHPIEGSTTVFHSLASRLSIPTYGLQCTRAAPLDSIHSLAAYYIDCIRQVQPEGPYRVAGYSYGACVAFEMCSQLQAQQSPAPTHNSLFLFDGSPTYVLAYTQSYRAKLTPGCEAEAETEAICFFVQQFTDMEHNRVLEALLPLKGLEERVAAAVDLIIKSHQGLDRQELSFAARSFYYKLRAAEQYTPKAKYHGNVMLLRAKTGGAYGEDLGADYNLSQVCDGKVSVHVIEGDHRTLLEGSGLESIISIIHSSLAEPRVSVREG
Method: Next, 1 μCi of ^14C-acetate will be added to the cells and be incubated for an additional 2 h. After washing cells with PBS/EDTA, the fatty acids will be extracted with chloroform/methanol (1:1) and quantified by scintillation counting using standard protocols.

With `CC1(C)C(/C=C/C=C/C=C/C=C2\N(CCCCS(=O)(=O)O)c3ccc4ccccc4c3C2(C)C)=[N+](CCCCS(=O)(=O)[O-])c2ccc3ccccc3c21` [ICG, indocyanine green] the “solubility in PBS” value [1] was “not soluble in PBS; also recorded: rapidly aggregates in PBS”.
In the case of `CCCCCCCCCCC[C@@H](C[C@@H]1OC(=O)[C@H]1CCCCCC)OC(=O)[C@H](CC(C)C)NC=O` [Orlistat], the “mitochondrial capacity (oxygen consumption rate)” value (PC3 cells) is listed as “decreases mitochondrial capacity; also recorded: negatively impacts mitochondrial capacity”, the “cytotoxicity after pre-incubation in PBS” value (cells) is listed as “rendered ineffective; also recorded: dramatically reduces its efficacy” and the “tumor growth in vivo” value ([2]; compared to a sham control) is listed as “inhibits tumor growth in vivo”. For the same molecule, the bioavailability ([2]; in vivo) was “poor bioavailability” and the “viability relative to the NP vehicle media control” value [3] was “consistent with free Orlistat”.
In the case of `CCCCCCCCCCCCCCOc1ccc(C(=O)O)o1` [TOFA], the “14C-acetate incorporation into lipids (FASN inhibition)” value (FASN) is reported as “inhibited FASN mediated incorporation of acetate in lipids”.
